Where two headings read alike, the source gives them in different places.
Assays:
[1] = target: dopaminergic receptors D3 (Homo sapiens, UniProt P35462); experiment: Radioligand binding assay, dopaminergic D3 receptors; settings: test compound 1×10^−6 M
In short: (§1)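 Scintillation read-out. Specific = total − nonspecific (excess cold ligand). Data as % of control specific binding / % inhibition; IC50 by Hill fit; Ki = IC50/(1+L/KD), KD from Scatchard plot.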

[2] = target: T1, receptors D4.4 (Homo sapiens, UniProt P21917); experiment: Radioligand binding assay, dopaminergic D4 (D4.4) receptors; settings: test compound 1×10^−6 M
T1 sequence (P21917 1-419): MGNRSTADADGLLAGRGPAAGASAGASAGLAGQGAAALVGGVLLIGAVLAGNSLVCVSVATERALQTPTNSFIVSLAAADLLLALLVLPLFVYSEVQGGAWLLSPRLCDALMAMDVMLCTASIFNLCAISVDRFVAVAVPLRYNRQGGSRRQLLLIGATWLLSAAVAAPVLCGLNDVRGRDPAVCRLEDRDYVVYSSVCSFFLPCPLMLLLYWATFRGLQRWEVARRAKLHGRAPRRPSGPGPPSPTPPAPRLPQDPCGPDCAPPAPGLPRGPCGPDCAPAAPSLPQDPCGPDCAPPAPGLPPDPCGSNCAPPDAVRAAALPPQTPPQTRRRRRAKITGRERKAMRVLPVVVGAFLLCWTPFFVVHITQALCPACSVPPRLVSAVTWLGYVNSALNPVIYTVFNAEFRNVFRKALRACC
In short: as §1

[3] = target: T2, 5-HT2C receptor (Homo sapiens, UniProt P28335); experiment: Radioligand binding assay, serotoninergic 5-HT2C receptors; settings: test compound 1×10^−6 M
T2 construct: expressed in transfected cells; host or cells: HEK-293 cells
T2 sequence (P28335 33-458): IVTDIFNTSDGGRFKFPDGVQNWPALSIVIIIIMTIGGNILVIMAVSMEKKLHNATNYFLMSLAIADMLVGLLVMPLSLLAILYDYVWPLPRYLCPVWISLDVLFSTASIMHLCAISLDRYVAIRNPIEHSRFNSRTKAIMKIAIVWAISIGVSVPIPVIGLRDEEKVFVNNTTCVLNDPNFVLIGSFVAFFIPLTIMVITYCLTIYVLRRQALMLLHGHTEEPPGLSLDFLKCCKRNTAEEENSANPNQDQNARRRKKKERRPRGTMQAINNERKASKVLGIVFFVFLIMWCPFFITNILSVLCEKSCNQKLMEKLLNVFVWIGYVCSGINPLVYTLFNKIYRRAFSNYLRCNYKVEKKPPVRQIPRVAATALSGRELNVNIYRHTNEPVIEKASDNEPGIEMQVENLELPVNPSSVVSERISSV

[4] = target: T3, 5-HT6 receptor (Homo sapiens, UniProt P50406); experiment: Radioligand binding assay, serotoninergic 5-HT6 receptors; settings: for inhibition at 1 µM: binding assay result in %, Table 5a; for Ki: read-out: Inhibition constants Ki, 5-HT6
T3 construct: purchased PerkinElmer
In short: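 Values are Ki from Cheng–Prusoff, taking IC50 from Hill nonlinear regression of competition curves and KD from a Scatchard plot. Specific binding was total minus binding with excess unlabelled ligand. Radioligand displacement was detected by scintillation counting, and data were also reported as percent of control specific binding.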

[5] = target: T4, M3 muscarinic receptors (Homo sapiens, UniProt P20309); experiment: Radioligand binding assay, muscarinic M3 receptors; settings: test compound 1×10^−6 M
T4 construct: expressed in transfected cells; host or cells: CHO cells
In short: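 Radioligand competition binding, detected by scintillation counting; non-specific binding defined with excess unlabelled ligand. Results given as % inhibition of control specific binding; IC50 from Hill-equation fit of competition curves, Ki via Cheng-Prusoff with radioligand KD from Scatchard plot.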

[6] = target: T5, serotonin transporter (SERT) (Homo sapiens, UniProt P31645); experiment: Radioligand binding assay, serotonin transporter (SERT); settings: for inhibition at 1 µM: binding assay, test compound 1×10^−6 M; for Ki: read-out: Inhibition constants Ki for SERT, SERT
T5 construct: expressed in transfected cells; host or cells: CHO cells
In short: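 Values are derived from competition curves fitted by the Hill equation to give IC50, then converted to Ki by Cheng-Prusoff with radioligand Kd from Scatchard analysis. Specific binding equals total minus non-specific (excess cold ligand), counted by scintillation, and is also expressed as percent inhibition of control.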

[7] = target: 5-HT2A serotoninergic receptors (Homo sapiens, UniProt P28223); experiment: Cellular functional assay, 5-HT2A serotoninergic receptors; type: cell-based
In short: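 Response expressed as percent of control specific agonist response; EC50 or IC50 from Hill-equation non-linear regression on mean replicate values. For antagonists, apparent Kb derived by modified Cheng-Prusoff using reference agonist concentration and its EC50.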

[8] = target: 5-HT6 serotoninergic receptors (Homo sapiens, UniProt P50406); experiment: Cellular functional assay, 5-HT6 serotoninergic receptors; type: cell-based; settings: agonist mode; percent of control specific agonist response
In short: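 Responses expressed as percent of control specific agonist response; EC50 or IC50 from Hill-equation nonlinear fits of mean replicate concentration-response curves. For antagonists, Kb derived by modified Cheng-Prusoff using reference agonist concentration and its EC50.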

[9] = agonist mode, percent of control specific agonist response

Sequence of dopaminergic receptors D3 (P35462 whole entry): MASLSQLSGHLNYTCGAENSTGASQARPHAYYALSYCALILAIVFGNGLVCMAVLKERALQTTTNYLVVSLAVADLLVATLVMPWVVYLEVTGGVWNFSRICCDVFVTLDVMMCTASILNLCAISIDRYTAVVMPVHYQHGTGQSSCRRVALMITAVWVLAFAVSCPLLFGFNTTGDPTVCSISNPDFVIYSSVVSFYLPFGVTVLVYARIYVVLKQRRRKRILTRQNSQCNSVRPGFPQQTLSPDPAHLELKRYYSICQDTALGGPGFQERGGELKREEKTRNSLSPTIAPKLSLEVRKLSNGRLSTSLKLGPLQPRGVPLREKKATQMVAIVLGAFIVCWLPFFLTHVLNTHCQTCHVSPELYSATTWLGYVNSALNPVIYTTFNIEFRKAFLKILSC
T4 sequence (P20309 whole entry): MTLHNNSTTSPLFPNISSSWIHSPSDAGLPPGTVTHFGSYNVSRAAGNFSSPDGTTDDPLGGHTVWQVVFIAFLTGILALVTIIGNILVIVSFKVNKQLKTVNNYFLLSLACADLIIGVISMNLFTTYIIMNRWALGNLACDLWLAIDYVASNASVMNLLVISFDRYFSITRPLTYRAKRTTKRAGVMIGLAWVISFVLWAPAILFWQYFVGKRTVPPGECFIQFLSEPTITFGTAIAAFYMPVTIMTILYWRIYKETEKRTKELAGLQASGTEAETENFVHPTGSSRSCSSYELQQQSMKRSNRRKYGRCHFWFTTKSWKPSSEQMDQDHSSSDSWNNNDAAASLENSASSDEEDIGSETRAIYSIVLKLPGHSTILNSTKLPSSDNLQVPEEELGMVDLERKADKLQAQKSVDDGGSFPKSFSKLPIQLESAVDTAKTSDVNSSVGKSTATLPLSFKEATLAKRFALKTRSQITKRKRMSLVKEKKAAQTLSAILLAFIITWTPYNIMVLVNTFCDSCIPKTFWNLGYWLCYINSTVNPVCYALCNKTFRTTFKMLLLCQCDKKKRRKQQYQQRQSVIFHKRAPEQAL
T3 sequence (P50406 whole entry): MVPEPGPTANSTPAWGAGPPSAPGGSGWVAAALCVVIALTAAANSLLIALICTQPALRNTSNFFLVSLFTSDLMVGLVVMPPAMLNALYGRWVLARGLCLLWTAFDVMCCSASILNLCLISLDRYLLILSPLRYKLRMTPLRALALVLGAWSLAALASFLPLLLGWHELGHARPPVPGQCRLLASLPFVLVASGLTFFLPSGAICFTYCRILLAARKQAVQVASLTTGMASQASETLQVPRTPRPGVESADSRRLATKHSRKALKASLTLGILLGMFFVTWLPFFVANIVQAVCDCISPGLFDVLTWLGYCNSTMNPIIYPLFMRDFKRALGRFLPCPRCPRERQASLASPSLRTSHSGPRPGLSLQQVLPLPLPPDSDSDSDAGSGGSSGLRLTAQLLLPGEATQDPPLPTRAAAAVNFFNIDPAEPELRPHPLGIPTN
Sequence of 5-HT6 serotoninergic receptors (P50406 whole entry): as above
Sequence of 5-HT2A serotoninergic receptors (P28223 whole entry): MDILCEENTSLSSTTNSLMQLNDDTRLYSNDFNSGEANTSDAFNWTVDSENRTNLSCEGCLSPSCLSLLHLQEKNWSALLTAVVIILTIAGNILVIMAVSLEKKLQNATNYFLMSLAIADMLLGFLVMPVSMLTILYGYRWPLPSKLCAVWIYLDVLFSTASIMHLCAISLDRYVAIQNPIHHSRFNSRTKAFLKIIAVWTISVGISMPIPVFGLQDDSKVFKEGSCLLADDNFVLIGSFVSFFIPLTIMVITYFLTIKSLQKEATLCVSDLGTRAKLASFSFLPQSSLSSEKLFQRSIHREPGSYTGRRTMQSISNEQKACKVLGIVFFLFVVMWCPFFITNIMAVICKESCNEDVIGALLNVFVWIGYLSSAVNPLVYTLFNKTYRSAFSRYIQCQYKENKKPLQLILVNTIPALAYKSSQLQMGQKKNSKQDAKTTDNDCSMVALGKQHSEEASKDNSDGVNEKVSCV
T5 sequence (P31645 whole entry): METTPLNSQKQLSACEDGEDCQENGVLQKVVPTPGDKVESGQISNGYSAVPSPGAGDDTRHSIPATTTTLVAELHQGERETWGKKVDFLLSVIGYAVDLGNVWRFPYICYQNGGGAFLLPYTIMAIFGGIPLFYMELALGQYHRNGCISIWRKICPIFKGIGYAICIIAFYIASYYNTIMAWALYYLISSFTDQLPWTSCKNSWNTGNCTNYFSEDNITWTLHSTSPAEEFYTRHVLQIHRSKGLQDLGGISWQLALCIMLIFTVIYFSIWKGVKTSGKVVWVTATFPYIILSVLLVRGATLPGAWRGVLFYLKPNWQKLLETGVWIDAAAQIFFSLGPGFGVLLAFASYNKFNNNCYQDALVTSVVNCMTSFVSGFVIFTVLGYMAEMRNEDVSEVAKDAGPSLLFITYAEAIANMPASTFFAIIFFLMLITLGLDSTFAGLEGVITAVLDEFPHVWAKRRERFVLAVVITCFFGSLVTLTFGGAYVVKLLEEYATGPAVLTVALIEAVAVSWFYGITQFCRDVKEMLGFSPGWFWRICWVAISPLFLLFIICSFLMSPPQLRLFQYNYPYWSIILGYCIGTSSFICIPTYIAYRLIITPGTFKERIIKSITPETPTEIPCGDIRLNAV

Q: For Cc1c(S(=O)(=O)NCC2CN(CCCc3noc4cc(F)ccc34)C2)sc2ccc(Cl)cc12 [Compound 131, 5-Chloro-N-[[1-[3-(6-fluoro-1,2-benzoxazol-3-yl)propyl]azetidin-3-yl]-methyl]-3-methyl-benzothiophene-2-sulphonamide], which inhibition at 1 µM [1] is on record?
A: 94%

Q: And the inhibition at 1 µM [2]?
A: 50%

Q: And the inhibition at 1 µM [3]?
A: 88%

Q: What about the inhibition at 1 µM [4] of the same compound?
A: 97%

Q: And the Ki [4]?
A: 9 nM

Q: What about the inhibition at 1 µM [5] of the same compound?
A: 17%

Q: What about the inhibition at 1 µM [6] of the same compound?
A: 55%

Q: And the “5-HT2A ag [%]” value [7, 9]?
A: −2%

Q: What about the “5-HT6 ag [%]” value [8] of the same compound?
A: 3%

Q: What does the source list for O=S(=O)(NCC1CN(CCCc2noc3cc(F)ccc23)C1)c1ccc2ccccc2c1 [Compound 134, N-[[1-[3-(6-Fluoro-1,2-benzoxazol-3-yl)propyl]azetidin-3-yl]methyl]-naphthalene-2-sulphonamide]?
A: inhibition at 1 µM [1]: 80%; inhibition at 1 µM [2]: 77%; inhibition at 1 µM [3]: 87%; inhibition at 1 µM [4]: 94%; inhibition at 1 µM [5]: 34%; inhibition at 1 µM [6]: 47%; 5-HT2A ag [%] [7]: −3%; 5-HT6 ag [%] [8]: 4%

Q: How did the inhibition at 1 µM [1] turn out when O=S(=O)(NC1CCN(CCOc2cccc3ccccc23)C1)c1ccc2ccccc2c1 (stereo not shown) [Compound 116, N-[1-[2-(1-Naphthyloxy)ethyl]pyrrolidin-3-yl]naphthalene-2-sulphonamide] was run?
A: 98%

Q: And the inhibition at 1 µM [2]?
A: 64%

Q: And the inhibition at 1 µM [4]?
A: 95%

Q: What about the Ki [4] of the same compound?
A: 71 nM

Q: What about the inhibition at 1 µM [5] of the same compound?
A: 9%

Q: And the inhibition at 1 µM [6]?
A: 95%

Q: And the Ki [6]?
A: 31 nM

Q: For CC1(C)Cc2cccc(OCCN3CCC(NS(=O)(=O)c4ccc5ccccc5c4)C3)c2O1 (stereo not shown) [Compound 108, N-[1-[2-[(2,2-Dimethyl-3H-benzofuran-7-yl)oxy]ethyl]pyrrolidin-3-yl]naphthalene-2-sulphonamide], which inhibition at 1 µM [1] is on record?
A: 95%

Q: What about the inhibition at 1 µM [2] of the same compound?
A: 85%

Q: And the inhibition at 1 µM [4]?
A: 59%

Q: What about the inhibition at 1 µM [5] of the same compound?
A: -4%

Q: And the inhibition at 1 µM [6]?
A: 36%

Q: Which inhibition at 1 µM [1] does the source give for O=S(=O)(NCC1CN(CCCc2noc3cc(F)ccc23)C1)c1cccc2ccccc12 [Compound 133, N-[[1-[3-(6-Fluoro-1,2-benzoxazol-3-yl)propyl]azetidin-3-yl]methyl]-naphthalene-1-sulphonamide] here?
A: 74%

Q: And the inhibition at 1 µM [2]?
A: 88%

Q: And the inhibition at 1 µM [3]?
A: 47%

Q: What about the inhibition at 1 µM [4] of the same compound?
A: 92%

Q: And the inhibition at 1 µM [5]?
A: 17%

Q: What about the inhibition at 1 µM [6] of the same compound?
A: 42%

Q: For CC1(C)Cc2cccc(OCCN3CCC(NS(=O)(=O)c4cccc(O)c4)C3)c2O1 (stereo not shown) [Compound 107, N-[1-[2-[(2,2-Dimethyl-3H-benzofuran-7-yl)oxy]ethyl]pyrrolidin-3-yl]-3-hydroxybenzenesulphonamide], which inhibition at 1 µM [1] is on record?
A: 97%

Q: What about the inhibition at 1 µM [2] of the same compound?
A: 83%

Q: And the inhibition at 1 µM [3]?
A: 86%

Q: What about the inhibition at 1 µM [4] of the same compound?
A: 39%

Q: What about the inhibition at 1 µM [5] of the same compound?
A: 8%

Q: What about the inhibition at 1 µM [6] of the same compound?
A: -4%

Q: With O=S(=O)(NCC1CN(CCOc2cccc3ccccc23)C1)c1ccc2ccccc2c1 [Compound 122, N-[[1-[2-(1-Naphthyloxy)ethyl]azetidin-3-yl]methyl]naphthalene-2-sulphonamide] as the compound, how does the inhibition at 1 µM [1] read?
A: 100%

Q: And the inhibition at 1 µM [2]?
A: 63%

Q: And the inhibition at 1 µM [3]?
A: 98%

Q: What about the inhibition at 1 µM [4] of the same compound?
A: 99%

Q: What about the Ki [4] of the same compound?
A: 13 nM

Q: And the inhibition at 1 µM [5]?
A: 30%

Q: What about the inhibition at 1 µM [6] of the same compound?
A: 98%

Q: And the Ki [6]?
A: 17 nM

Q: And the “5-HT6 ag [%]” value [8]?
A: 0%

Q: Which inhibition at 1 µM [1] does the source give for O=S(=O)(NCC1CCN(CCOc2cccc3ccccc23)C1)c1ccc2ccccc2c1 (stereo not shown) [Compound 124, N-[[1-[2-(1-Naphthyloxy)ethyl]pyrrolidin-3-yl]methyl]naphthalene-2-sulphonamide] here?
A: 94%

Q: What about the inhibition at 1 µM [2] of the same compound?
A: 54%

Q: And the inhibition at 1 µM [3]?
A: 80%

Q: What about the inhibition at 1 µM [4] of the same compound?
A: 99%

Q: What about the inhibition at 1 µM [5] of the same compound?
A: 49%

Q: And the inhibition at 1 µM [6]?
A: 100%

Q: And the “5-HT6 ag [%]” value [8]?
A: 7%

Q: Which inhibition at 1 µM [1] does the source give for Cc1cccc(S(=O)(=O)NC2CCN(CCCc3c[nH]c4ccc(Cl)cc34)C2)c1 (stereo not shown) [Compound 86, N-[1-[3-(5-chloro-1H-indol-3-yl)propyl]pyrrolidin-3-yl]-3-methyl-benzenesulphonamide] here?
A: 97%

Q: What about the inhibition at 1 µM [2] of the same compound?
A: 88%

Q: What about the inhibition at 1 µM [4] of the same compound?
A: 98%

Q: And the Ki [4]?
A: 13 nM

Q: What about the inhibition at 1 µM [5] of the same compound?
A: 1%

Q: And the inhibition at 1 µM [6]?
A: 105%

Q: What about the Ki [6] of the same compound?
A: 1.1 nM

Q: Which inhibition at 1 µM [1] does the source give for Cc1c(S(=O)(=O)NCC2CN(CCCc3noc4cc(F)ccc34)C2)sc2ccc(F)cc12 [Compound 130, 5-Fluoro-N-[[1-[3-(6-fluoro-1,2-benzoxazol-3-yl)propyl]azetidin-3-yl]methyl]-3-methyl-benzothiophene-2-sulphonamide] here?
A: 94%

Q: What about the inhibition at 1 µM [2] of the same compound?
A: 67%

Q: And the inhibition at 1 µM [3]?
A: 89%

Q: And the inhibition at 1 µM [4]?
A: 98%

Q: What about the Ki [4] of the same compound?
A: 9.7 nM

Q: And the inhibition at 1 µM [5]?
A: 15%

Q: What about the inhibition at 1 µM [6] of the same compound?
A: 64%

Q: What about the “5-HT2A ag [%]” value [7, 9] of the same compound?
A: 0%

Q: What about the “5-HT6 ag [%]” value [8] of the same compound?
A: 4%

Q: With O=S(=O)(NCC1CN(CCCc2noc3cc(F)ccc23)C1)c1ccc2scnc2c1 [Compound 132, N-[[1-[3-(6-Fluoro-1,2-benzoxazol-3-yl)propyl]azetidin-3-yl]methyl]-1,3-benzothiazole-5-sulphonamide] as the compound, how does the inhibition at 1 µM [1] read?
A: 60%

Q: What about the inhibition at 1 µM [2] of the same compound?
A: 39%

Q: What about the inhibition at 1 µM [3] of the same compound?
A: 43%

Q: What about the inhibition at 1 µM [4] of the same compound?
A: 69%

Q: And the inhibition at 1 µM [5]?
A: 10%

Q: What about the inhibition at 1 µM [6] of the same compound?
A: 20%

Reference: patent US20140135310A1, “SULPHONAMIDE DERIVATIVES OF ALICYCLIC AMINES FOR THE TREATMENT OF CENTRAL NERVOUS SYSTEM DISEASES” (Adamed Sp. z o.o., priority 2011, published 2014)
